Earlier results on one compound are cited in patent US11202800B1, “Methods for treating emotional cognitive disconnect” (priority 2013, dated 2021).

In data set [1] the test system is Ca^2+ plus calmodulin dependent phosphorylation of synapsin I. The following applies: in rats.
In data set [2] the test system is Ca^2+ plus calmodulin-stimulated reactions. As to conditions: in rats.

For `[Mg+2]` [Mg^2+, magnesium], the “Mg^2+ concentration above which Ca^2+ plus calmodulin dependent phosphorylation of synapsin I is progressively inhibited” value in data set [1] was “above 5 mM”. Further, the “Mg^2+ concentration range in which Ca^2+ plus calmodulin-stimulated reactions are maximally active” value in data set [2] was 30 to 50 mM.
